Legend:
[1] = biological target: Cytochrome P450 2C9 (Homo sapiens, UniProt P11712); conditions: bti-tn-5b1-4; further: in other assays of this panel Not Active means under 50% inhibition at 10 µM
[2] = biological target: T1, Muscarinic acetylcholine receptor M5 (Homo sapiens, UniProt P08912); type: cell membranes, CHO-K1, Membrane; further: in other assays of this panel Not Active means under 50% inhibition at 10 µM
T1 sequence (P08912 whole entry): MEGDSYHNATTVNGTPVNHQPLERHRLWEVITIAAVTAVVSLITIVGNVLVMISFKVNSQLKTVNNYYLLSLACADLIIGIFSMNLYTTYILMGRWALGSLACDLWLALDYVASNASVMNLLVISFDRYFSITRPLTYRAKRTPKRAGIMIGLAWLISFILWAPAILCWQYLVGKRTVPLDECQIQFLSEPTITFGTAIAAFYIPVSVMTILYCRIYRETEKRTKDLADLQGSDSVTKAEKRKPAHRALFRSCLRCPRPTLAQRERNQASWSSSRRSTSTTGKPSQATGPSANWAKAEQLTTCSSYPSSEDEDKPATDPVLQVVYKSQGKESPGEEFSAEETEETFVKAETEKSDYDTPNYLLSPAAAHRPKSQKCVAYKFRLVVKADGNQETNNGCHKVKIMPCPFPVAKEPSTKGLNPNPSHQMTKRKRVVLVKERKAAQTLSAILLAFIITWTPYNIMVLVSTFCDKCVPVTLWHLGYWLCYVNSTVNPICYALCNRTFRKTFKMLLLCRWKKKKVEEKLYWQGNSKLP

[3] = biological target: T2, 5-hydroxytryptamine receptor 1A (Rattus norvegicus, UniProt P19327); type: cell membranes, CHO-K1, Membrane; conditions: for Ki: read-out: Ki; on all read-outs here: in other assays of this panel Not Active means under 50% inhibition at 10 µM
T2 sequence (P19327 whole entry): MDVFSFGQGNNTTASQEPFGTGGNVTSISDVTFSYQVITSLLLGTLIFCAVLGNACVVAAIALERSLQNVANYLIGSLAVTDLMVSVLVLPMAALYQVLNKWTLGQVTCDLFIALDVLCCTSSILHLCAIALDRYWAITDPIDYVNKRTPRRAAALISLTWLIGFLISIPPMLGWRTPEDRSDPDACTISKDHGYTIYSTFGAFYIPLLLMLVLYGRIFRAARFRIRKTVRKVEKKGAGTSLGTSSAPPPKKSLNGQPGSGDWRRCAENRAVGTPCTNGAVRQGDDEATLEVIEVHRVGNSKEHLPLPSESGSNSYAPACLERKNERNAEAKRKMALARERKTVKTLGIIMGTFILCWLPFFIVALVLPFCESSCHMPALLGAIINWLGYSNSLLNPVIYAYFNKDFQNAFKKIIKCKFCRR

[4] = biological target: T3, Estrogen receptor (Homo sapiens, UniProt P03372); conditions: sf9; further: in other assays of this panel Not Active means under 50% inhibition at 10 µM
T3 sequence (P03372 whole entry): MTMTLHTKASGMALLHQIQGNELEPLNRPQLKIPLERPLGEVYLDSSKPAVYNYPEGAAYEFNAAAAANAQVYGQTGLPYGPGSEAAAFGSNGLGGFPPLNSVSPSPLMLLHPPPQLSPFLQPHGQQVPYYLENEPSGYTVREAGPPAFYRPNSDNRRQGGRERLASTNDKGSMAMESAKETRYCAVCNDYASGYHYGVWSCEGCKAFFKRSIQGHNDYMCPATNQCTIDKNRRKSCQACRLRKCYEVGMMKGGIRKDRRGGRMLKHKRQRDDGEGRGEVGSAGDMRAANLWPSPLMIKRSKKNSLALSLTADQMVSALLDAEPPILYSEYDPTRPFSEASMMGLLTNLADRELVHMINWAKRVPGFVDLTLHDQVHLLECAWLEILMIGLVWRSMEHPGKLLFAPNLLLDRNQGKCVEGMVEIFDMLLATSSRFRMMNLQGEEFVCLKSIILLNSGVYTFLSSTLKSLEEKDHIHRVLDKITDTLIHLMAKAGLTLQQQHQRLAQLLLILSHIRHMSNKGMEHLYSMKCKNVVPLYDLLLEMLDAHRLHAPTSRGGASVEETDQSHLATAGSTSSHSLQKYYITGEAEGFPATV

[5] = DRUGMATRIX: Serotonin (5-Hydroxytryptamine) 5-HT3 radioligand binding (ligand: [3H] GR-65630); type: cell membranes, Membrane; conditions: hek293; Not Active = under 50% inhibition at 10 µM
[6] = biological target: T4, C-X-C chemokine receptor type 2 (Homo sapiens, UniProt P25025); type: cell membranes, Membrane; conditions: cho-k1; further: in other assays of this panel Not Active means under 50% inhibition at 10 µM
T4 sequence (P25025 whole entry): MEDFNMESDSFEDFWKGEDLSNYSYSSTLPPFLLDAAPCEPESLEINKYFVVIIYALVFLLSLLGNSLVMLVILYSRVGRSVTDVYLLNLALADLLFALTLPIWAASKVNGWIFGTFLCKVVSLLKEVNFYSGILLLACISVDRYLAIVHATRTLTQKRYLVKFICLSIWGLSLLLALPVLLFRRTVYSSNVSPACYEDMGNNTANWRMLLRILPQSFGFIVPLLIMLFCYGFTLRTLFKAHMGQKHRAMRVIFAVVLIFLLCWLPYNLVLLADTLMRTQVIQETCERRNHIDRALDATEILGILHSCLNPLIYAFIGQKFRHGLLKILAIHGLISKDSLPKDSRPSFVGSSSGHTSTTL

[7] = biological target: Cytochrome P450 2E1 (Homo sapiens, UniProt P05181); conditions: bti-tn-5b1-4; further: in other assays of this panel Not Active means under 50% inhibition at 10 µM
Chain of Cytochrome P450 2E1 (P05181 whole entry): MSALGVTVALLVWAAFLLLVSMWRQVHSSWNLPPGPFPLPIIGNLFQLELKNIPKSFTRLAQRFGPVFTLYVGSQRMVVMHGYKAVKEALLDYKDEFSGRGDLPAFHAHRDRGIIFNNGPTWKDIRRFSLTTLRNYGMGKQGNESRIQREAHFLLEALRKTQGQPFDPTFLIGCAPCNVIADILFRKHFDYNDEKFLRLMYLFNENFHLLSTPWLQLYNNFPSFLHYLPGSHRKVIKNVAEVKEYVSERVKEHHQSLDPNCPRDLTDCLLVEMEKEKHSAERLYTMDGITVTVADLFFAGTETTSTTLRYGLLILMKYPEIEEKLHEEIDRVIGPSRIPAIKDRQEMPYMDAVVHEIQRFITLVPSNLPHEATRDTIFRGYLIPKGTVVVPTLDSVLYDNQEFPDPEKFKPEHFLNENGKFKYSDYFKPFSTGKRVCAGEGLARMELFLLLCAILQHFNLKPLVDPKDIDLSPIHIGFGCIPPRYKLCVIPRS

Chain of Cytochrome P450 2C9 (P11712 whole entry): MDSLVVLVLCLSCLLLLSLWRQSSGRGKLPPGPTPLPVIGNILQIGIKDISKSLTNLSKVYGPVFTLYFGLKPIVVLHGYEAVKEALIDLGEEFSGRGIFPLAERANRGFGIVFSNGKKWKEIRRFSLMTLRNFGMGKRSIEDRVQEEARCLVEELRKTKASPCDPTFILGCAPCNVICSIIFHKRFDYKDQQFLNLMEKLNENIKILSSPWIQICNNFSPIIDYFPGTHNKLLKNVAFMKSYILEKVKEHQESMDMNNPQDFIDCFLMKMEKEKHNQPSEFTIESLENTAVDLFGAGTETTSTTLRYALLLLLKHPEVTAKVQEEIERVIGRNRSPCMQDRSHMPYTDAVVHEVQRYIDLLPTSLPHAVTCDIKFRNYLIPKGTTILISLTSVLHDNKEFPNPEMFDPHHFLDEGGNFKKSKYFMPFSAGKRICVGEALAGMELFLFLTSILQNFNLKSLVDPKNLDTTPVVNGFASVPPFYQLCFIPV

| Compound | IC50 [1] | Ki [1] | IC50 ([2]; cho-k1) | IC50 ([3]; cho-k1) | IC50 [4] | IC50 [5] | Ki [5] | IC50 [6] | IC50 [7] | Ki [7] | Ki ([2]; cho-k1) | IC50 ([2]; read-out: IC50) [nM] | Ki ([2]; read-out: Ki) [nM] | IC50 ([3]; read-out: IC50) [nM] | Ki [3] [nM] |
| --- | --- | --- | --- | --- | --- | --- | --- | --- | --- | --- | --- | --- | --- | --- | --- |
| CCCNC(=O)NS(=O)(=O)c1ccc(Cl)cc1 [CHLORPROPAMIDE] | Not Active | Not Active | Not Active | Not Active | Not Active | Not Active | Not Active | Not Active | Not Active | Not Active |  |  |  |  |  |
| CC(=O)OC[C@H]1O[C@@H](n2ncc(=O)[nH]c2=O)[C@H](OC(C)=O)[C@@H]1OC(C)=O [AZARIBINE] | Not Active | Not Active |  | Not Active | Not Active | Not Active | Not Active | Not Active | Not Active | Not Active | Not Active |  |  |  |  |
| NCCCNCCSP(=O)(O)O [AMIFOSTINE] | Not Active | Not Active | Not Active | Not Active | Not Active | Not Active | Not Active | Not Active | Not Active | Not Active |  |  |  |  |  |
| COc1ccnc(C[S+]([O-])c2nc3ccc(OC(F)F)cc3[nH]2)c1OC (stereo not given) [PANTOPRAZOLE] | Not Active | Not Active | Not Active | Not Active | Not Active | Not Active | Not Active | Not Active | Not Active | Not Active |  |  |  |  |  |
| CCCCC1=NC2(CCCC2)C(=O)N1Cc1ccc(-c2ccccc2-c2nnn[nH]2)cc1 [IRBESARTAN] | Not Active | Not Active | Not Active | Not Active | Not Active | Not Active | Not Active | Not Active | Not Active | Not Active |  |  |  |  |  |
| COC(=O)Nc1nc2cc(C(=O)c3ccc(F)cc3)ccc2[nH]1 [FLUBENDAZOLE] | Not Active | Not Active | Not Active | Not Active | Not Active | Not Active | Not Active | Not Active | Not Active | Not Active |  |  |  |  |  |
| CN(C)CCC=C1c2ccccc2CCc2ccccc21 [AMITRIPTYLINE] | Not Active | Not Active |  |  | Not Active | Not Active | Not Active | Not Active | Not Active | Not Active |  | 8.02 | 5.76 | 2000 | 1140 |
| Cc1ccc(C)c(OCCCC(C)(C)C(=O)O)c1 [GEMFIBROZIL] | Not Active | Not Active | Not Active | Not Active | Not Active | Not Active | Not Active | Not Active | Not Active | Not Active |  |  |  |  |  |
| CNC1=Nc2ccc(Cl)cc2C(c2ccccc2)=[N+]([O-])C1 [CHLORDIAZEPOXIDE] | Not Active | Not Active | Not Active | Not Active | Not Active | Not Active | Not Active | Not Active | Not Active | Not Active |  |  |  |  |  |
| CC(O)COC[C@H]1O[C@@H]2O[C@H]3[C@H](O)[C@@H](O)[C@@H](O[C@H]4[C@H](O)[C@@H](O)[C@@H](O[C@H]5[C@H](O)[C@@H](O)[C@@H](O[C@H]6[C@H](O)[C@@H](O)[C@@H](O[C@H]7[C@H](O)[C@@H](O)[C@@H](O[C@H]8[C@H](O)[C@@H](O)[C@@H](O[C@H]1[C@H](O)[C@H]2O)O[C@@H]8COCC(C)O)O[C@@H]7COCC(C)O)O[C@@H]6COCC(C)O)O[C@@H]5COCC(C)O)O[C@@H]4COCC(C)O)O[C@@H]3COCC(C)O (stereo partly drawn) [2-HYDROXYPROPYL-BETA-CYCLODEXTRIN] | Not Active | Not Active | Not Active | Not Active | Not Active | Not Active | Not Active | Not Active | Not Active | Not Active |  |  |  |  |  |
| CC1=NN(c2ccccc2)C(=O)C1 [EDARAVONE] | Not Active | Not Active | Not Active | Not Active | Not Active | Not Active | Not Active | Not Active | Not Active | Not Active |  |  |  |  |  |
| CCCNC(C)C(=O)Nc1ccccc1C (stereo not given) [PRILOCAINE] | Not Active | Not Active | Not Active | Not Active | Not Active | Not Active | Not Active | Not Active | Not Active | Not Active |  |  |  |  |  |
| CCc1ccc(CCOc2ccc(CC3SC(=O)NC3=O)cc2)nc1 (stereo not given) [PIOGLITAZONE] | Not Active | Not Active | Not Active | Not Active | Not Active | Not Active | Not Active | Not Active | Not Active | Not Active |  |  |  |  |  |
| CN1CCN(C(c2ccccc2)c2ccccc2)CC1 [CYCLIZINE] | Not Active | Not Active |  | Not Active | Not Active | Not Active | Not Active | Not Active | Not Active | Not Active |  | 633 | 455 |  |  |
| C[C@]12CC[C@H]3[C@@H](CCC4=CC(=O)CC[C@@H]43)[C@@H]1CC[C@@H]2O [NANDROLONE] | Not Active | Not Active | Not Active | Not Active | Not Active | Not Active | Not Active | Not Active | Not Active | Not Active |  |  |  |  |  |
| CN1CCC(=C2c3ccccc3CC(=O)c3sccc32)CC1 [KETOTIFEN] | Not Active | Not Active |  |  | Not Active | Not Active | Not Active | Not Active | Not Active | Not Active |  | 374 | 269 | 2540 | 1450 |
